Experimental data as given in patent EP3967331A1, “ULTRA-SMALL FLUORESCENT ORGANIC NANOPARTICLES” (Centre national de la recherche scientifique, priority 2020, dated 2022).

Experiment: Nile Red probing of the hydrophobic core
Type: physicochemical
Details: Nile Red 200 nM, excitation 540 nm, water
Protocol: In contrast to the out-stretched configuration of a polymer brush, the folded monomolecular nanoparticle is expected to bear a hydrophobic core (Figure 1), similar to that of micelles made of surfactants. To evidence the presence of this core, we used a solvatochromic dye Nile Red, which is a common tool for identifying low polar environment of micelles^81 and single-chain polymeric NPs. Fluorescence spectra of Nile Red at fixed concentration (200 nM) were recorded with addition of different concentrations of fully PEGylated PMAO polymer with 5 mol% BDP1 (Figure12. A drastic increase in the fluorescence intensity of Nile Red was observed accompanied by ∼30 nm blue shift of the emission band (Figure12A,B,D. The increase in the intensity stabilized above 200 nM polymer concentration (Figure12C, which corresponded well to 1/1 dye/polymer molar ratio. Below this concentration, multiple Nile Red molecules per particle can be present, which leads to dye self-quenching, explaining lower intensity at lower polymer concentrations. On the other hand, the blue shifted emission of Nile Red at ∼630 nm indicates the presence of a hydrophobic binding site in these NPs. The NPs were compared with micelles of Tween 80, having a hydrophobic core formed by hydrocarbon chains. […]

CCCCCCCC/C=C\CCCCCCCC(=O)OCCOCC(OCCO)C1OCC(OCCO)C1OCCO (stereo not shown) [Tween 80]
Emission of Nile Red: ~640 nm
